Paper PMC9363231, “High‐resolution analysis of individual spike peptide‐specific CD4 ^+ T‐cell responses in vaccine recipients and COVID‐19 patients” (Clinical & Translational Immunology, 2022)
Where two headings read alike, the source gives them in different places.

Legend:
HLA-DPB1*04:01 = target: T1, HLA-DPB1*04:01 (Homo sapiens, UniProt P04440+P20036); experiment: In vitro HLA binding (data not shown)
T1 sequence (P04440 30-258): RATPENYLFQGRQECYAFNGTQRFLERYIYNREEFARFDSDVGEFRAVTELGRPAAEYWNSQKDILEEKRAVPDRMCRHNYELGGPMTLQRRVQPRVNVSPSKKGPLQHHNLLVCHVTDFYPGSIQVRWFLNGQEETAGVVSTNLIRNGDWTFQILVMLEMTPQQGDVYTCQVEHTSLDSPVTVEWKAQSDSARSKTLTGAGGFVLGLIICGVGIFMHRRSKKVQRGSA
T1 sequence (P20036 29-260): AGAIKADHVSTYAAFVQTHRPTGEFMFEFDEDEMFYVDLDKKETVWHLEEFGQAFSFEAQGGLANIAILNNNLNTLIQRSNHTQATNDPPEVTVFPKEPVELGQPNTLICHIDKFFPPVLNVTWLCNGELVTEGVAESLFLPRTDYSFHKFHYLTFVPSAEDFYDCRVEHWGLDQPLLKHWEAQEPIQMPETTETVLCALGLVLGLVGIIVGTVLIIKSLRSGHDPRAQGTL

HLA-DRB1*15:01 = HLA-DRB1*15:01 (Homo sapiens, UniProt P01903+P01911); experiment: biochemical; type: binding
CD4+ T cells = type: cell-based, human
HLA-DPB1*04:02 = experiment: In vitro HLA binding (data not shown); parameters: species or system human
HLA-DRB1*04:05 = HLA-DRB1*04:05 (Homo sapiens, UniProt P01903+P01911, A100R/A169T/D86S/F76Y/I96L/K127E/L162R/M171V/N62H/P40V/Q125Y/R42H/S133A/S149N/S66Y/V115G/V209L/W38E); experiment: biochemical; type: binding
HLA-DRB1*04:01 = HLA-DRB1*04:01 (Homo sapiens, UniProt P01903+P01911, A100K/A169T/F76Y/I96L/K127E/L162R/M171V/N62H/P40V/Q125Y/R42H/S133A/S149N/S66Y/V115G/V209L/W38E); experiment: biochemical; type: binding
HLA-DRB1*09:01 = HLA-DRB1*09:01 (Homo sapiens, UniProt P01903+P01911, A100R/A103E/D57H/D86V/F55Y/F60I/F76Y/I96F/K127E/L162R/M171V/P40D/Q125H/Q99R/R33Q/R42F/S133A/S66N/T210M/V115G/W38K/Y107V/Y59G/Y89S); experiment: biochemical; type: binding
HLA-DRB1*12:01 = HLA-DRB1*12:01 (Homo sapiens, UniProt P01903+P01911, A100R/A169T/D57E/D86V/F55L/H45Y/K41T/L162R/M171V/P40S/Q125H/Q178H/Q39Y/Q99D/R42G/S66L/T262R/V114A/V67L/W38E/Y59H/Y61H/Y89S); experiment: biochemical; type: binding
HLA-DRB1*13:02 = HLA-DRB1*13:02 (Homo sapiens, UniProt P01903+P01911, A100E/A169T/K41T/L162R/M171V/P40S/Q125H/Q178H/Q39Y/Q99D/R42S/S66N/T262R/V115G/W38E/Y61H); experiment: biochemical; type: binding
HLA-DRB1*03:01 = HLA-DRB1*03:01 (Homo sapiens, UniProt P01903+P01911, A100K/A102G/A103R/A169T/F55Y/I96L/K41T/L162R/M171V/P40S/Q125H/Q178H/Q39Y/R42S/S66N/T106N/T262R/W38E/Y61H); experiment: biochemical; type: binding
HLA-DRB1*08:02 = HLA-DRB1*08:02 (Homo sapiens, UniProt P01903+P01911, A100R/A103L/A169T/F76Y/H45Y/I96F/K41T/L162R/M171V/P40S/Q125H/Q178H/Q39Y/Q99D/R218S/R42G/S66Y/V115G/W38E); experiment: biochemical; type: binding
HLA-DRB1*11:01 = HLA-DRB1*11:01 (Homo sapiens, UniProt P01903+P01911, A100R/A169T/A87E/I96F/K41T/L162R/M171V/P40S/Q125H/Q178H/Q39Y/Q99D/R42S/S66Y/T262R/V115G/W38E); experiment: biochemical; type: binding
HLA-DRB1*01:01 = HLA-DRB1*01:01 (Homo sapiens, UniProt P01903+P01911, A100R/D57E/F55L/F60I/F76Y/I96L/L162R/M171V/P40L/Q125E/R42F/V115G/Y59C); experiment: biochemical; type: binding
HLA-DRB1*07:01 = HLA-DRB1*07:01 (Homo sapiens, UniProt P01903+P01911, A100R/A102G/A103Q/D57E/D86V/E43K/F76Y/K127E/L162R/M171V/P40G/Q125H/Q99D/R33Q/R42Y/R54Q/S133A/S66F/T210M/V115G/Y107V/Y59L/Y89S); experiment: biochemical; type: binding

HLA-DRB1*03:01, sequence (P01903 26-254, other chains not shown): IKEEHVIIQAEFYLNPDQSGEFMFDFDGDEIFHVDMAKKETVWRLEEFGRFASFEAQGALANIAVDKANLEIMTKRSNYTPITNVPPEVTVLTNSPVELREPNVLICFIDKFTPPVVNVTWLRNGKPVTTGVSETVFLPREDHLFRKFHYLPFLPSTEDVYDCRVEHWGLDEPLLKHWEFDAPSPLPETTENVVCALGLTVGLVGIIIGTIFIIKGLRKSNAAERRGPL
HLA-DRB1*13:02, sequence (P01903 26-254 limits assumed, other chains not shown): as the sequence (P01903 26-254, other chains not shown) above
HLA-DRB1*11:01, sequence (P01903 26-254 limits assumed, other chains not shown): as the sequence (P01903 26-254, other chains not shown) above

SMILES	IC50 (HLA-DRB1*04:05) [nM]	IC50 (HLA-DRB1*04:01) [nM]	IC50 (HLA-DRB1*09:01) [nM]	IC50 (HLA-DRB1*12:01) [nM]	IC50 (HLA-DRB1*13:02) [µM]	IC50 (HLA-DRB1*15:01) [µM]	IC50 (HLA-DRB1*03:01) [µM]	IC50 (HLA-DRB1*08:02) [µM]	IC50 (HLA-DRB1*11:01) [µM]	IC50 (HLA-DRB1*01:01) [nM]	IC50 (HLA-DRB1*07:01) [nM]	also measured
CC(C)C[C@H](NC(=O)[C@H](Cc1ccccc1)NC(=O)[C@@H]1CCCN1C(=O)[C@H](CC(=O)O)NC(=O)[C@H](CC(N)=O)NC(=O)[C@H](CS)NC(=O)[C@H](Cc1ccccc1)NC(=O)[C@H](CCC(N)=O)NC(=O)[C@H](Cc1ccccc1)NC(=O)[C@H](CCC(=O)O)NC(=O)[C@@H](N)CS)C(=O)NCC(=O)N[C@H](C(=O)N[C@@H](Cc1ccc(O)cc1)C(=O)N[C@@H](Cc1ccc(O)cc1)C(=O)O)C(C)C [peptide 27]	–	–	–	–	–	–	–	–	–	–	–	binding to HLA-DPB1*04:01 (HLA-DPB1*04:01): high affinity; IC50 (HLA-DRB1*15:01; read-out: in vitro binding capacity (IC50), DRB1*15:01): 7.65 µM; responding patients, DRB1*01:01 (CD4+ T cells; responders / study participants carrying DRB1*01:01, CD4+ IFN-γ response, peptide 10 μg mL−1, after 14 days expansion): 4/6; responding patients, DRB1*03:01 (CD4+ T cells; responders / study participants carrying DRB1*03:01, CD4+ IFN-γ response, peptide 10 μg mL−1, after 14 days expansion): 2/3; responding patients, DRB1*04:01 (CD4+ T cells; responders / study participants carrying DRB1*04:01, CD4+ IFN-γ response, peptide 10 μg mL−1, after 14 days expansion): 4/4; responding patients, DRB1*07:01 (CD4+ T cells; responders / study participants carrying DRB1*07:01, CD4+ IFN-γ response, peptide 10 μg mL−1, after 14 days expansion): 5/8; responding patients, DRB1*11:01 (CD4+ T cells; responders / study participants carrying DRB1*11:01, CD4+ IFN-γ response, peptide 10 μg mL−1, after 14 days expansion): 3/3; responding patients, DRB1*12:01 (CD4+ T cells; responders / study participants carrying DRB1*12:01, CD4+ IFN-γ response, peptide 10 μg mL−1, after 14 days expansion): 0/1; responding patients, DRB1*15:01 (CD4+ T cells; responders / study participants carrying DRB1*15:01, CD4+ IFN-γ response, peptide 10 μg mL−1, after 14 days expansion): 3/7; response frequency (RF) / recognition rate of CD4+ T-cell response (CD4+ T cells; share of the 35 participants with a CD4+ IFN-γ response to the peptide): 64%; binding to HLA-DPB1*04:02 (HLA-DPB1*04:02): high affinity
CC[C@H](C)[C@H](NC(=O)[C@H](Cc1ccccc1)NC(=O)[C@@H](N)CO)C(=O)N[C@@H](CCC(=O)O)C(=O)N[C@@H](CC(=O)O)C(=O)N[C@@H](CC(C)C)C(=O)N[C@@H](CC(C)C)C(=O)N[C@@H](Cc1ccccc1)C(=O)N[C@@H](CC(N)=O)C(=O)N[C@@H](CCCCN)C(=O)N[C@H](C(=O)N[C@H](C(=O)N[C@@H](CC(C)C)C(=O)N[C@@H](C)C(=O)N[C@@H](CC(=O)O)C(=O)O)[C@@H](C)O)C(C)C [peptide 164]	2170	1100	1300	537	0.174	3.17	3.23	15.2	13.2	4350	3960	–
CC[C@H](C)[C@H](N)C(=O)N1CCC[C@H]1C(=O)N[C@@H](Cc1ccccc1)C(=O)N[C@@H](C)C(=O)N[C@@H](CCSC)C(=O)N[C@@H](CCC(N)=O)C(=O)N[C@@H](CCSC)C(=O)N[C@@H](C)C(=O)N[C@@H](Cc1ccc(O)cc1)C(=O)N[C@@H](CCCNC(=N)N)C(=O)N[C@@H](Cc1ccccc1)C(=O)N[C@@H](CC(N)=O)C(=O)NCC(=O)N[C@H](C(=O)NCC(=O)O)[C@@H](C)CC [peptide 180]	1610	443	7.9	2.2	13.7	0.192	11.7	0.553	0.023	58	25	–
